# Test results as given in patent US20090226527A1, “Particulate-stabilized injectable pharmacutical compositions of posaconazole” (priority 2004, published 2009).
# Test system: infectious agents (strains tested)
# Experiment: organism not typed
# Assay type: cell-based
smiles,measurement,setting,value
C[C@@H]1[C@H](O)[C@@H](C)/C=C/C=C/C=C/C=C/C=C/C=C/C=C/[C@H](O[C@@H]2O[C@H](C)[C@@H](O)[C@H](N)[C@@H]2O)C[C@@H]2O[C@](O)(C[C@@H](O)C[C@@H](O)[C@H](O)CC[C@@H](O)C[C@@H](O)CC(=O)O[C@H]1C)C[C@H](O)[C@H]2C(=O)O [Amphotericin],MIC,"Absidia spp, read-out: Geometric Mean MIC",0.545 µg/mL
same,MIC,"Absidia spp, read-out: MIC[90]",0.25 to 2 µg/mL
same,MIC,"Alternaria spp, read-out: Geometric Mean MIC",0.852 µg/mL
same,MIC,"Alternaria spp, read-out: MIC[90]",4 µg/mL
same,MIC,"Apophysomyces spp, read-out: Geometric Mean MIC",0.5 µg/mL
same,MIC,"Apophysomyces spp, read-out: MIC[90]",0.031 to 4 µg/mL
same,MIC,"Aspergillus flavus, read-out: Geometric Mean MIC",0.91 µg/mL
same,MIC,"Aspergillus flavus, read-out: MIC[90]",2 µg/mL
same,MIC,"Aspergillus fumigatus, read-out: Geometric Mean MIC",0.683 µg/mL
same,MIC,"Aspergillus fumigatus, read-out: MIC[90]",1 µg/mL
same,MIC,"Aspergillus nidulans, read-out: Geometric Mean MIC",0.758 µg/mL
same,MIC,"Aspergillus nidulans, read-out: MIC[90]",2 µg/mL
same,MIC,"Aspergillus niger, read-out: Geometric Mean MIC",0.36 µg/mL
same,MIC,"Aspergillus niger, read-out: MIC[90]",1 µg/mL
same,MIC,"Aspergillus sydowii, read-out: Geometric Mean MIC",1.26 µg/mL
same,MIC,"Aspergillus sydowii, read-out: MIC[90]",1 to 2 µg/mL
same,MIC,"Aspergillus terreus, read-out: Geometric Mean MIC",1.76 µg/mL
same,MIC,"Aspergillus terreus, read-out: MIC[90]",4 µg/mL
same,MIC,"Aspergillus ustus, read-out: Geometric Mean MIC",0.673 µg/mL
same,MIC,"Aspergillus ustus, read-out: MIC[90]",0.25 to 1 µg/mL
same,MIC,"Bipolaris spp, read-out: Geometric Mean MIC",0.25 µg/mL
same,MIC,"Bipolaris spp, read-out: MIC[90]",0.25 µg/mL
same,MIC,"Bjerkandera adusta, read-out: Geometric Mean MIC",0.215 µg/mL
same,MIC,"Bjerkandera adusta, read-out: MIC[90]",0.25 µg/mL
same,MIC,"Blastomyces dermatitidis, read-out: Geometric Mean MIC",0.153 µg/mL
same,MIC,"Blastomyces dermatitidis, read-out: MIC[90]",0.5 µg/mL
same,MIC,"Candida albicans, read-out: Geometric Mean MIC",0.686 µg/mL
same,MIC,"Candida albicans, read-out: MIC[90]",1 µg/mL
same,MIC,"Candida dubliniensis, read-out: Geometric Mean MIC",0.513 µg/mL
same,MIC,"Candida dubliniensis, read-out: MIC[90]",1 µg/mL
same,MIC,"Candida tropicalis, read-out: Geometric Mean MIC",0.774 µg/mL
same,MIC,"Candida tropicalis, read-out: MIC[90]",1 µg/mL
same,MIC,"Clavispora lusitaniae, Candida lusitaniae, read-out: Geometric Mean MIC",0.506 µg/mL
same,MIC,"Clavispora lusitaniae, Candida lusitaniae, read-out: MIC[90]",1 µg/mL
same,MIC,"Coccidioides immitis, read-out: Geometric Mean MIC, Coccidioides immitis",0.39 µg/mL
same,MIC,"Coccidioides immitis, read-out: MIC[90], Coccidioides immitis",0.5 µg/mL
same,MIC,"Cryptococcus neoformans, read-out: Geometric Mean MIC",0.667 µg/mL
same,MIC,"Cryptococcus neoformans, read-out: MIC[90]",1 µg/mL
same,MIC,"Curvularia spp, read-out: Geometric Mean MIC",0.5 µg/mL
same,MIC,"Curvularia spp, read-out: MIC[90]",0.5 µg/mL
same,MIC,"Debaryomyces hansenii, Candida famata, read-out: Geometric Mean MIC",0.841 µg/mL
same,MIC,"Debaryomyces hansenii, Candida famata, read-out: MIC[90]",2 µg/mL
same,MIC,"Diutina rugosa, Candida rugosa, read-out: Geometric Mean MIC",0.665 µg/mL
same,MIC,"Diutina rugosa, Candida rugosa, read-out: MIC[90]",1 µg/mL
same,MIC,"Dujonia zeylanoides, Candida zeylanoides, read-out: Geometric Mean MIC",1 µg/mL
same,MIC,"Dujonia zeylanoides, Candida zeylanoides, read-out: MIC[90]",1 µg/mL
same,MIC,"Exophiala dermatidis, read-out: Geometric Mean MIC",0.5 µg/mL
same,MIC,"Exophiala dermatidis, read-out: MIC[90]",0.5 µg/mL
same,MIC,"Exophiala dermatitidis, Wangiella dermatitidis, read-out: Geometric Mean MIC",0.63 µg/mL
same,MIC,"Exophiala dermatitidis, Wangiella dermatitidis, read-out: MIC[90]",0.25 to 1 µg/mL
same,MIC,"Exophiala jeanselmei, read-out: Geometric Mean MIC",0.66 µg/mL
same,MIC,"Exophiala jeanselmei, read-out: MIC[90]",1 µg/mL
same,MIC,"Exophiala moniliae, read-out: Geometric Mean MIC",0.177 µg/mL
same,MIC,"Exophiala moniliae, read-out: MIC[90]",0.125 to 0.25 µg/mL
same,MIC,"Fonsecae pedrosoi, read-out: Geometric Mean MIC",1 µg/mL
same,MIC,"Fonsecae pedrosoi, read-out: MIC[90]",1 µg/mL
same,MIC,"Fusarium spp, read-out: Geometric Mean MIC",1.2 µg/mL
same,MIC,"Fusarium spp, read-out: MIC[90]",2 µg/mL
same,MIC,"Hansenula anomala, Pichia anomala, read-out: Geometric Mean MIC",0.707 µg/mL
same,MIC,"Hansenula anomala, Pichia anomala, read-out: MIC[90]",1 µg/mL
same,MIC,"Histoplasma capsulatum, read-out: Geometric Mean MIC, Histoplasma capsulatum",0.25 µg/mL
same,MIC,"Histoplasma capsulatum, read-out: MIC[90], Histoplasma capsulatum",0.5 µg/mL
same,MIC,"Kluyveromyces marxianus, Candida kefyr, read-out: Geometric Mean MIC",0.779 µg/mL
same,MIC,"Kluyveromyces marxianus, Candida kefyr, read-out: MIC[90]",1 µg/mL
same,MIC,"Kluyveromyces marxianus, read-out: Geometric Mean MIC",1 µg/mL
same,MIC,"Kluyveromyces marxianus, read-out: MIC[90]",1 µg/mL
same,MIC,"Lodderomyces parapsilosis, Candida parapsilosis, read-out: Geometric Mean MIC",0.761 µg/mL
same,MIC,"Lodderomyces parapsilosis, Candida parapsilosis, read-out: MIC[90]",1 µg/mL
same,MIC,"Meyerozyma guilliermondii, Candida guilliermondii, read-out: Geometric Mean MIC",0.553 µg/mL
same,MIC,"Meyerozyma guilliermondii, Candida guilliermondii, read-out: MIC[90]",1 µg/mL
same,MIC,"Mucor spp, read-out: Geometric Mean MIC",0.274 µg/mL
same,MIC,"Mucor spp, read-out: MIC[90]",1 µg/mL
same,MIC,"Nakaseomyces glabratus, Candida glabrata, read-out: Geometric Mean MIC",0.798 µg/mL
same,MIC,"Nakaseomyces glabratus, Candida glabrata, read-out: MIC[90]",1 µg/mL
same,MIC,"Paecilomyces spp, read-out: Geometric Mean MIC",1.1 µg/mL
same,MIC,"Paecilomyces spp, read-out: MIC[90]",16 µg/mL
same,MIC,"Papiliotrema laurentii, Cryptococcus laurentii, read-out: Geometric Mean MIC",0.794 µg/mL
same,MIC,"Papiliotrema laurentii, Cryptococcus laurentii, read-out: MIC[90]",0.5 to 1 µg/mL
same,MIC,"Paracoccidioides brasiliensis, read-out: Geometric Mean MIC, Paracoccidioides brasiliensis",0.096 µg/mL
same,MIC,"Paracoccidioides brasiliensis, read-out: MIC[90], Paracoccidioides brasiliensis",0.25 µg/mL
same,MIC,"Penicillium spp, read-out: Geometric Mean MIC",1.02 µg/mL
same,MIC,"Penicillium spp, read-out: MIC[90]",4 µg/mL
same,MIC,"Pichia etchel, read-out: Geometric Mean MIC",0.063 µg/mL
same,MIC,"Pichia etchel, read-out: MIC[90]",0.063 µg/mL
same,MIC,"Pichia kudriavzevii, Candida krusei, read-out: Geometric Mean MIC",0.976 µg/mL
same,MIC,"Pichia kudriavzevii, Candida krusei, read-out: MIC[90]",2 µg/mL
same,MIC,"Pleurothecium obovoideum, Ramichloridium obovoideum, read-out: Geometric Mean MIC",1 µg/mL
same,MIC,"Pleurothecium obovoideum, Ramichloridium obovoideum, read-out: MIC[90]",1 µg/mL
same,MIC,"Rhizomucor spp, read-out: Geometric Mean MIC",0.063 µg/mL
same,MIC,"Rhizomucor spp, read-out: MIC[90]",0.063 µg/mL
same,MIC,"Rhizopus spp, read-out: Geometric Mean MIC",0.635 µg/mL
same,MIC,"Rhizopus spp, read-out: MIC[90]",2 µg/mL
same,MIC,"Saccharomyces cerevisiae, read-out: Geometric Mean MIC",0.775 µg/mL
same,MIC,"Saccharomyces cerevisiae, read-out: MIC[90]",1 µg/mL
same,MIC,"Scedosporium apiospermum, read-out: Geometric Mean MIC",2.27 µg/mL
same,MIC,"Scedosporium apiospermum, read-out: MIC[90]",8 µg/mL
same,MIC,"Scedosporium boydii, Pseudallescheria boydii, read-out: Geometric Mean MIC",1.72 µg/mL
same,MIC,"Scedosporium boydii, Pseudallescheria boydii, read-out: MIC[90]",4 µg/mL
same,MIC,"Sporothrix schenckii, read-out: Geometric Mean MIC",0.574 µg/mL
same,MIC,"Sporothrix schenckii, read-out: MIC[90]",1 µg/mL
same,MIC,"Trichophyton mentagrophytes, read-out: Geometric Mean MIC",1 µg/mL
same,MIC,"Trichophyton mentagrophytes, read-out: MIC[90]",1 µg/mL
same,MIC,"Trichophyton tonsurans, read-out: Geometric Mean MIC",1.26 µg/mL
same,MIC,"Trichophyton tonsurans, read-out: MIC[90]",0.5 to 8 µg/mL
same,MIC,"Trichosporon spp, read-out: Geometric Mean MIC",1.32 µg/mL
same,MIC,"Trichosporon spp, read-out: MIC[90]",1 to 2 µg/mL
same,MIC,"Yarrowia lipolytica, read-out: Geometric Mean MIC",0.5 µg/mL
same,MIC,"Yarrowia lipolytica, read-out: MIC[90]",0.5 µg/mL
